Data taken from patent US9624211B2, “Anti-cancer compounds” (Board of Regents, The University of Texas System, priority 2013, dated 2017).
Entries after “also recorded” stand apart in the source; their conditions may differ.

Legend:
Hep3B (liver) = assay: Cell survival assay, Hep3B; type: cell-based, human
Protocol: (§1) For Skp2 inhibitor administration, 5-10×10^3 of cells with were seeded in 12 wells in triplicate, 24 h later, treated with compound #25 (refreshed every two days). Four days later, cells were harvested, stained with trypan blue, and viable cells were counted directly under the microscope using hemocytometer. For doxorubicin treatment, 8×10^3 of PC3 cells with were seeded in 12 wells in triplicate, 24 h later, treated with various dose of compound #25 in the presence or absence of 10 nM doxorubicin or 25 ng/ml cyclophosphamide for four and three days, respectively (refreshed every two days). After treatment, cells were harvested, stained with trypan blue, and viable cells were counted directly under the microscope using hemocytometer. Cellular senescence was determined by assessing SA-b-gal activity using senescence detection kit according to manufacturers' standard procedures (Calbiochem).

LNCaP cells = assay: Cell survival assay, LNCaP; type: cell-based, human
Protocol: as §1

prostate cancer cells [1] = assay: Cell apoptosis assay (Annexin-V, flow cytometry); type: cell-based
Protocol: Prostate cancer cells were treated with vehicle (DMSO) or Skp2 inhibitor for 3 days, and collected and labeled with Annexin-V-FITC, followed by flow cytometry analysis. The Annexin-V+ and […] cells indicates apoptotic cell population (Q4).

β-TRCP = assay: In vivo ubiquitination assay, β-TRCP substrates; type: cell-based; settings: in the presence of proteasome inhibitor
Protocol: (§2) In vivo and in vitro ubiquitination assays were performed as described with modification (Lin et al., 2009; Yang et al., 2009). For in vitro ubiquitination assay, recombinant GST-Akt proteins were expressed, purified and eluted from the bacterial lysates of BL21 competent cells. Flag-Skp2 SCF complex were expressed in 293T cells, immunoprecipitated by anti-Flag antibody, and eluted from Protein A/G beads using Flag peptides according to manufacturers' standard procedures. Purified GST-Akt and Flag-SCF proteins were incubated for 3 h at 37° C. in the absence and presence of Skp2 inhibitor. After incubation, protein mixtures were diluted in E1A Buffer and the supernatant fluid was precleared with Protein A/G beads for 1 h, and immunoprecipitated overnight with anti-Flag antibody, after which Protein A/G beads were added for an additional 1 h. Beads were washed 4 times with E1A Buffer. Proteins were eluted in SDS-sample buffer and subjected to immunoblotting analysis. For in vivo ubiquitination assay, 293T cells were transfected with the indicated plasmids and cultured in the absence or presence of Skp2 inhibitor for 48 h. 6 h before harvest, cells were cultured in the presence of MG132. After cell harvest, cells were lysed by the denatured buffer (6M guanidine-HCl, 0.1M Na2HPO4/NaH2PO4, 10 mM imidazole). […]

[2] = system: normal prostate epithelial PNT1A cells; assay: Cell survival assay, PNT1A; type: cell-based
Protocol: as §1

PC3 cells = assay: Cell cycle by PI staining and flow cytometry; type: cell-based, human; settings: PC3 cells treated for 2 days
Protocol: FIGS. 12A-D. Skp2 inhibitor triggers cell growth suppression and cell cycle arrest at G2/M phase, related to FIG. 4. (FIG. 12A) The impact of Skp2 inhibitor on growth suppression in various cell lines. A panel of cancer cell lines were treated with various doses of Skp2 inhibitor (#25) for 4 days, and viable cell numbers were counted using hemocytometer. Growth inhibition (IC50) by compound #25 was derived from the cell counting using hemocytometer. (FIG. 12B) PC3 cells were treated with or without compound #25 for 2 days and cell cycle were determined by PI staining, followed by flow cytometry analysis. G1 phase=61.3±0.3%, S phase=15.6±0.6% and G2/M phase=20.3±0.3% in DMSO-treated PC3 cells while G1 phase=50.1±0.9%, S phase=13.3±0.8% and G2/M phase=24.5±0.3% in #25-treated PC3 cells. (FIG. 12C) Control- or Skp2-knockdown PC3 cells were treated with or without compound #25 for 2 days and cell cycle were determined by PI staining, followed by flow cytometry analysis. Two clones of Skp2 shRNA were used in this assay. G1 phase=53.1±0.8% and S phase=15.9±0.9% and G2/M phase=26.1±0.6% in control-knockdown PC3 cells, G1 phase=49.5±0.4%, S phase=13.6±0.7% and G2/M phase=29.1±0.5% in one clone of Skp2-silenced PC3 cells, G1 phase=54.5±1.6%, S phase=10.6±0.4% and G2/M phase=28.8±0.2% in another clone of Skp2-silenced PC3 cells. (FIG. 12D) WT or Skp2−/− MEFs were treated with or without compound #25 for 2 days, and cell cycle was determined by PI staining, followed by flow cytometry analysis. G1 phase=50.5±4.6%, S phase=9.1±0.6% and G2/M phase=27.8±0.9% in WT MEFs while G1 phase=27.7±1.3%, S phase=8.2±1.9% and G2/M phase=39.0±1.6% in Skp2−/− MEFs. Results are presented as mean values ±S.D. * indicates p<0.05, ** indicates p<0.01. Results from treatment groups were compared to vehicle-treated group.

U2OS (osteocarcinoma) = assay: Cell survival assay, U2OS; type: cell-based, human
Protocol: as §1

Skp2 SCF E3 ligase = biological target: T1, Skp2 SCF E3 ligase (Homo sapiens, UniProt Q13309); assay: In vivo p27 ubiquitination assay in 293T cells; type: cell-based; settings: WT Skp2
T1 construct: expressed in transfected cells; host or cells: 293T
Protocol: as §2

prostate cancer cells [3] = assay: Cell survival assay in combination with Dox or CPA; type: cell-based; settings: combination with doxorubicin or cyclophosphamide
Protocol: as §1

prostate CSCs = assay: ALDH+ cancer stem cell population by FACS; type: cell-based
Protocol: FIGS. 6A-G. Skp2 inactivation diminishes cancer stem cell properties and heightens cancer cell sensitivity to chemotherapy. (FIG. 6A) Populations of ALDH^+ cells were determined by FACS analysis in PC3 cells treated with vehicle or compound #25. (FIG. 6B) Populations of ALDH^+ cells were determined by FACS analysis in PC3 cells with control or Skp2 knockdown. (FIG. 6C) Populations of ALDH^+ cells were determined by FACS analysis in PC3 cells with control or Skp2 knockdown treated with vehicle or compound #25. (FIG. 6D) Populations of ALDH^+ cells were determined by FACS analysis in PC3 cells with DMSO or LY294002. (FIG. 6E) Populations of ALDH^+ cells were determined by FACS analysis in LNCaP cells treated with DMSO, LY294002 or compound #25. (FIGS. 6F-G) Prostate sphere-formation assay in PC3 (FIG. 6F) and LNCaP (FIG. 6G) cells treated with DMSO, LY294002 or compound #25. Results are presented as mean values±S.D. ** indicates p<0.01.

[4] = biological target: T2, Skp2-mediated Akt ubiquitination (Homo sapiens, UniProt Q13309); assay: In vivo Akt ubiquitination assay; type: cell-based; settings: FIG. 1G
T2 construct: expressed in transfected cells; host or cells: 293T
Protocol: as §2

T1 sequence (Q13309 whole entry): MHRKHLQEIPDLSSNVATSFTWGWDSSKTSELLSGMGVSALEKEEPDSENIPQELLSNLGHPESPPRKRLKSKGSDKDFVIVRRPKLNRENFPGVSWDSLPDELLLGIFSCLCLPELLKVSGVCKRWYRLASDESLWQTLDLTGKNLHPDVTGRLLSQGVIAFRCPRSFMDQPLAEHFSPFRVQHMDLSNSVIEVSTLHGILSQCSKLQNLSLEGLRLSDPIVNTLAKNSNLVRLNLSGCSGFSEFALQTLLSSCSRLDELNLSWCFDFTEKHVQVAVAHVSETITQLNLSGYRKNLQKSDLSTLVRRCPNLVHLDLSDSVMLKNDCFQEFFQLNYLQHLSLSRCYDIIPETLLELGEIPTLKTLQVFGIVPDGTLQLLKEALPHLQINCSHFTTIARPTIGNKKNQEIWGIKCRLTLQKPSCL
T2 sequence (Q13309 whole entry): as above

CCc1cc2c(=O)c(-c3nc4ccccc4s3)coc2c(CN2CCCCC2)c1O [compound #25, 3-(1,3-benzothiazol-2-yl)-6-ethyl-7-hydroxy-8-(1-piperidinylmethyl)-4H-chromen-4-one]
cell viability (Hep3B (liver)): potent suppressive effect on viability | cell viability (LNCaP cells): potent effects on cell viability | cell apoptosis (prostate cancer cells [1]): elicited cell apoptosis | β-TRCP-mediated ubiquitination (β-catenin, Snail, IκBα) (β-TRCP): no appreciable effect | cell viability [2]: only slightly affected | G1 phase (PC3 cells): 50.1±0.9% | G2/M phase (PC3 cells): 24.5±0.3% | S phase (PC3 cells): 13.3±0.8% | cell viability (U2OS (osteocarcinoma)): potent suppressive effect on viability | Skp2-mediated p27 ubiquitination (Skp2 SCF E3 ligase): inhibited Skp2-mediated p27 ubiquitination in a dose-dependent manner; also recorded: abrogated E3 ligase activity | sensitization to Dox and CPA (prostate cancer cells [3]): increased the efficacy of Dox and CPA | population of prostate CSCs (prostate CSCs): reduce the population of prostate CSCs in a dose dependent manner | population of prostate CSCs upon Skp2 silencing (prostate CSCs; Skp2 silencing): failed to do so | Skp2-mediated Akt ubiquitination in cells [4]: inhibited Skp2-mediated Akt ubiquitination
